For assay [1], the system named is S. aureus strain ATCC 13709 (methicillin-susceptible). In words: Murine model for lethal bacteremic peritonitis. The class given is in vivo, female Swiss-Webster mice. Particulars: Staphylococcus aureus, ATCC13709, SC, 72 h; for responders at 1.25 mg/kg: read-out: Survivors (converted); for ED50: two equal doses, IP challenge, read-out: ED50. The protocol: Groups of 5 female Swiss-Webster mice (Simonsen, Gilroy, Calif.) each are challenged by the intraperitoneal (IP) route with tenfold increments of a bacterial inoculum. This permits calculation of the mean lethal dose (LD50) and the LD100. For preliminary evaluation of a new antibiotic, mice are challenged IP with an LD100 titer of bacteria. In two equal doses administered at the time of bacterial challenge and 2 hours later, groups of 10 mice each are treated subcutaneously with two-fold increments of the test drug and an antibiotic of known efficacy in mice and humans (i.e., positive control). Mice are observed for 72 h. Those alive at 72 h are considered long term survivors. The total drug dose in mg/kg that protects 50% of mice in a group from death is termed the mean protective dose (PD50). PD50 s are similarly determined for several pathogens. The quantitative endpoints for the new drug are then compared with those obtained with reference antibiotics.
Six ten-fold dilutions of inoculum suspended in 0.5 mL of sterilized 7% hog gastric mucin (Sigma) are injected IP in groups of 5 mice each. A control group of 5 mice receive mucin alone. Mice are observed for 72 h. Those alive at 72 h are considered long term survivors. The mean lethal dose (LD50) and 100% lethal dose (LD100) are determined by the probit test.
For antibiotic efficacy studies, mice are challenged IP with bacterial titers that will afford an LD100 for the test strain. In two equal doses administered at the time of bacterial challenge and 2 hours later, groups of 10 mice each are treated by the subcutaneous route (SC) with twofold increments of the test antibiotic; another group is treated similarly with a reference antibiotic of known efficacy in animals and man. Drug doses can range from 0.01 to 512 mg/kg. If the drug is poorly soluble, Tween 20 or propylene glycol will be employed to solubilize the drug. Animals are observed for 72 h. The 50% protective dose (PD50) is calculated in mg/kg by the probit method. The PD50 is the same as the 50% effective dose (ED50) and the 50% curative dose (CD50). Samples of blood from the hearts of all animals that die and from half the mice that survive are cultured on brain-heart infusion agar. Animals that received a protective dosage of the test drug will be alive at 72 h, although they may appear moderately ill to very ill during the observation period. […] Most of these mice will die within 6 to 48 h. Those alive at 72 h will be considered long term survivors.
(Compound numbers correspond to those in MIC tables; data reported for challenge with methicillin-susceptible S. aureus strain ATCC 13709.)

The test system of another assay is P. aeruginosa ATCC 27853. In words: In vitro MIC, agar dilution. The class given is cell-based. Particulars: Pseudomonas aeruginosa, ATCC27853, read-out: minimum inhibitory concentration (MIC). The gist of the method: (§1)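 Growth inhibition was scored after 16-20 h at 35-36 °C on Mueller-Hinton agar carrying serial two-fold drug concentrations (128 to ≤0.25 μg/mL). Inocula of ~10^4 cfu per spot came from 4-6 h broth cultures.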
(In general: Agar dilution tests growth on a series of plates holding different concentrations.)

In assay [2] the test system is S. haemolyticus 05(Meth^R). Kind of assay: In vitro MIC, agar dilution. The class given is cell-based. Particulars: Staphylococcus haemolyticus, read-out: minimum inhibitory concentration (MIC). Summed up: as §1
Assay [3] has as its system S. aureus ATCC 33593(Meth^R). In words: In vitro MIC, agar dilution. It is filed as cell-based. The conditions noted are these: Staphylococcus aureus, ATCC33593, read-out: minimum inhibitory concentration (MIC). The gist of the method:
as §1

Another assay relates to E. faecalis VanB(Van^R). Kind of assay: In vitro MIC, agar dilution. The class given is cell-based. Particulars: Enterococcus faecalis, read-out: minimum inhibitory concentration (MIC). Summed up:
as §1

In a further assay the test system is E. faecium VanA(Van^R). Kind of assay: In vitro MIC, agar dilution. The class given is cell-based. Particulars: Enterococcus faecium, read-out: minimum inhibitory concentration (MIC). The gist of the method:
as §1

The test system of the next assay is E. coli ATCC 25992. Kind of assay: In vitro MIC, agar dilution. It is filed as cell-based. Particulars: Escherichia coli, ATCC25992, read-out: minimum inhibitory concentration (MIC). The gist of the method:
as §1

Assay [4] deals with S. aureus 76(Meth^R)(lac^+). In words: In vitro MIC, agar dilution. It is filed as cell-based. Particulars: Staphylococcus aureus, read-out: minimum inhibitory concentration (MIC). Summed up: as §1
For another assay, the system named is E. faecalis ATCC 29212. Kind of assay: In vitro MIC, agar dilution. The class given is cell-based. The conditions noted are these: Enterococcus faecalis, ATCC29212, read-out: minimum inhibitory concentration (MIC). Summed up:
as §1

Another assay has as its system S. aureus ATCC 29213. Kind of assay: In vitro MIC, agar dilution. It is filed as cell-based. The conditions noted are these: Staphylococcus aureus, ATCC29213, read-out: minimum inhibitory concentration (MIC). The gist of the method: as §1
In assay [5] the test system is S. aureus Spain #356(Meth^R). In words: In vitro MIC, agar dilution. The conditions noted are these: Staphylococcus aureus, read-out: minimum inhibitory concentration (MIC). It is filed as cell-based. The gist of the method: as §1
In assay [6] the test system is S. aureus ATCC 13709(Meth^S). In words: In vitro MIC, agar dilution. It is filed as cell-based. Particulars: Staphylococcus aureus, ATCC13709, S. aureus ATCC 13709(Meth^S); read-out: minimum inhibitory concentration (MIC). The gist of the method:
as §1

The test system of the next assay is E. faecium A491(Amp^R). In words: In vitro MIC, agar dilution. Particulars: Enterococcus faecium, read-out: minimum inhibitory concentration (MIC). It is filed as cell-based. The gist of the method: as §1
In the next assay the test system is E. faecium ATCC 35667. Kind of assay: In vitro MIC, agar dilution. It is filed as cell-based. The conditions noted are these: Enterococcus faecium, ATCC35667, read-out: minimum inhibitory concentration (MIC). Summed up:
as §1

Assay [7] relates to S. aureus PC1(Meth^S)(lac^+). Kind of assay: In vitro MIC, agar dilution. It is filed as cell-based. The conditions noted are these: Staphylococcus aureus, read-out: minimum inhibitory concentration (MIC). Summed up:
as §1

For assay [8], the system named is S. aureus Col(Meth^R)(lac^-). Kind of assay: In vitro MIC, agar dilution. The class given is cell-based. The conditions noted are these: Staphylococcus aureus, read-out: minimum inhibitory concentration (MIC). Summed up: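 Two-fold dilutions (128 to ≤0.25 μg/mL, in duplicate) were poured into Mueller-Hinton agar. Log-phase broth cultures were spot-inoculated at about 10^4 cfu per spot and incubated 35-36°C for 16-20 hours; the MIC was the lowest concentration inhibiting growth. Col is a high-level PBP2a producer; Col 8A is its isogenic PBP2a-lacking partner.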

Where a name gives a salt, the structure may show the parent alone.

`NCCSCc1cnccc1SC1=C(C(=O)O)N2C(=O)[C@@H](NC(=O)/C(=N\O)c3nc(N)sc3Cl)[C@H]2SC1` [Cmpd 16, (7R)-7-[(Z)-2-(2-amino-5-chlorothiazol-4-yl)-2-(hydroxyimino)acetamido]-3-(3-aminoethylthiomethylpyrid-4-ylthio)-3-cephem-4-carboxylate, trifluoroacetic acid salt]: in [1] (Dose 0.156 mg/kg, read-out: Survivors), the responders at 0.156 mg/kg worked out at 20%. For the same molecule, in assay [1] (read-out: Survivors), the responders at 0.3125 mg/kg was 10%. Also, the responders at 0.625 mg/kg in [1] (read-out: Survivors) is 30%. In addition, in [1], the responders at 1.25 mg/kg was 55.6%. Besides, in [1] (read-out: Survivors), the responders at 2.5 mg/kg turned out to be 80%. Further, the ED50 – broadly, the midpoint of the dose-response relation – in assay [1] amounted to 1 mg/kg. The MIC in the assay with P. aeruginosa ATCC 27853 is more than 32 µg/mL; in assay [2], 2 µg/mL; in [3], 1 µg/mL; in the assay with E. faecalis VanB(Van^R) it was 0.13 µg/mL; in the assay on E. faecium VanA(Van^R) it was 0.25 µg/mL; in the assay with E. coli ATCC 25992, 8 µg/mL. The MIC was 1 µg/mL in assay [4]; not above 0.06 µg/mL with E. faecalis ATCC 29212; 0.25 µg/mL in the assay with S. aureus ATCC 29213; 1 µg/mL in assay [5]; 0.13 µg/mL in assay [6]; 8 µg/mL with E. faecium A491(Amp^R). For the same molecule, the values for the MIC (in the assay with E. faecium ATCC 35667; in [7]; in assay [8]) were 0.5 µg/mL, 0.25 µg/mL and 0.5 µg/mL, respectively.
Regarding `NCCSCc1cnccc1SC1=C(C(=O)O)N2C(=O)[C@@H](NC(=O)/C(=N\O)c3ccccc3)[C@H]2SC1.O=C(O)C(F)(F)F` [Cmpd 26, (7R)-7-[(Z)-2-phenyl-2-(hydroxyimino)acetamido]-3-(3-aminoethylthiomethylpyrid-4-ylthio)-3-cephem-4-carboxylate, trifluoroacetic acid salt], in assay [1] (read-out: Survivors), the responders at 0.3125 mg/kg stood at 10%. For the same molecule, the responders at 0.625 mg/kg in [1] (read-out: Survivors) amounted to 50%. In addition, the responders at 1.25 mg/kg in assay [1] was 50%. Further, the responders at 2.5 mg/kg in assay [1] (read-out: Survivors) is 70%. For the same molecule, the responders at 5 mg/kg in [1] (read-out: Survivors) was 90%. In addition, in [1], the median effective dose (ED50) was 1.06 mg/kg. The MIC in the assay with P. aeruginosa ATCC 27853 was more than 32 µg/mL; in assay [2], 2 µg/mL; in assay [3] it was 1 µg/mL; in the assay on E. faecalis VanB(Van^R), 0.13 µg/mL; with E. faecium VanA(Van^R), 0.5 µg/mL; in the assay with E. coli ATCC 25992, more than 32 µg/mL. Also, the MIC in assay [4] was 1 µg/mL; in the assay on E. faecalis ATCC 29212, not above 0.06 µg/mL; with S. aureus ATCC 29213, 0.13 µg/mL; in assay [5] it was 1 µg/mL; in assay [6], not above 0.06 µg/mL; in the assay with E. faecium A491(Amp^R) it was 8 µg/mL. The MIC in the assay with E. faecium ATCC 35667 came out at 0.25 µg/mL; in assay [7], 0.13 µg/mL; in [8] it was 0.5 µg/mL.
Turning to `NCC(=O)NCCSCc1cnccc1SC1=C(C(=O)O)N2C(=O)[C@@H](NC(=O)/C(=N\O)c3nc(N)sc3Cl)[C@H]2SC1` [Cmpd 29, (7R)-7-[(Z)-2-(2-amino-5-chlorothiazol-4-yl)-2-(hydroxyimino)acetamido]-3-[3-(glycyl)aminoethylthiomethylpyrid-4-ylthio]-3-cephem-4-carboxylate, trifluoroacetic acid salt], the responders at 0.3125 mg/kg in assay [1] (read-out: Survivors) was determined as 20%. The responders at 0.625 mg/kg in assay [1] (read-out: Survivors) stood at 50%. In [1], the responders at 1.25 mg/kg was 90%. Also, in [1] (read-out: Survivors), the responders at 2.5 mg/kg worked out at 90%. Besides, the responders at 5 mg/kg in assay [1] (read-out: Survivors) turned out to be 70%. Also, the ED50 in [1] came out at 1.26 mg/kg. Further, the MIC in the assay with P. aeruginosa ATCC 27853 is more than 32 µg/mL; in [2] it was 2 µg/mL; in [3], 2 µg/mL; with E. faecalis VanB(Van^R) it was not above 0.06 µg/mL; in the assay on E. faecium VanA(Van^R) it was 0.5 µg/mL; in the assay with E. coli ATCC 25992, 8 µg/mL. Besides, the MIC in assay [4] is 1 µg/mL; in the assay on E. faecalis ATCC 29212 it was not above 0.06 µg/mL; in the assay with S. aureus ATCC 29213 it was 0.25 µg/mL; in assay [5], 2 µg/mL; in [6], 0.13 µg/mL; with E. faecium A491(Amp^R), 4 µg/mL. For the same molecule, the MIC came out at 0.25 µg/mL in the assay with E. faecium ATCC 35667, 0.25 µg/mL in assay [7] and 1 µg/mL in [8].
For the molecule `NCCSCc1cnccc1SC1=C(C(=O)O)N2C(=O)[C@@H](NC(=O)/C(=N\OCCF)c3nc(N)sc3Cl)[C@H]2SC1.O=C(O)C(F)(F)F` [Cmpd 33, (7R)-7-[(Z)-2-(2-amino-5-chlorothiazol-4-yl)-2-(2-fluoroethoxyimino)acetamido]-3-(3-aminoethylthiomethylpyrid-4-ylthio)-3-cephem-4-carboxylate, trifluoroacetic acid salt], the responders at 0.3125 mg/kg in [1] (read-out: Survivors) came out at 0%. Besides, the responders at 0.625 mg/kg in [1] (read-out: Survivors) was 40%. Further, the responders at 1.25 mg/kg in [1] is 50%. In addition, the responders at 2.5 mg/kg in assay [1] (read-out: Survivors) was determined as 90%. The responders at 5 mg/kg in assay [1] (read-out: Survivors) stood at 80%. The ED50 in assay [1] was found to be 1.19 mg/kg. The MIC in the assay with P. aeruginosa ATCC 27853 was found to be 32 µg/mL; in assay [2] it was 2 µg/mL; in [3], 2 µg/mL; with E. faecalis VanB(Van^R) it was 0.13 µg/mL; in the assay with E. faecium VanA(Van^R) it was 2 µg/mL; in the assay on E. coli ATCC 25992 it was 1 µg/mL. The MIC came out at 1 µg/mL in assay [4]; 0.13 µg/mL in the assay on E. faecalis ATCC 29212; 0.25 µg/mL in the assay with S. aureus ATCC 29213; 1 µg/mL in assay [5]; 0.13 µg/mL in assay [6]; 8 µg/mL with E. faecium A491(Amp^R). Also, the MIC with E. faecium ATCC 35667 was found to be 0.5 µg/mL; in assay [7], 0.25 µg/mL; in assay [8], 1 µg/mL.
